Assay results from PubChem BioAssay AID194 (DTP/NCI, 2004).
“And” between values parts separate entries of the source, which are not always exact repeats. Equal values may be shown once. Results filed as inconclusive are left out.

Tested on: BDF1 mice, B16 melanoma s.c., survival/tumor T/C
Experiment: NCI In Vivo Anticancer Drug Screen. Data for tumor model B16 Melanoma (subcutaneous) in B6D2F1 (BDF1) mice
Settings: endpoint: median survival time, higher = longer survival
Protocol: The antitumor activity of compounds was measured in mice bearing transplantable tumors. Survival or tumor size were measured and the results are expressed as the measurement made in the treated group (T) divided by the measurement made in the vehicle treated control group (C). The tumor model used in this assay is B16 Melanoma (subcutaneous) in B6D2F1 (BDF1) mice

[1] = dose: 50.0 mg/kg/injection, schedule: Q04DX003 (ip), vehicle: saline
[2] = dose: 6.25 mg/kg/injection, schedule: Q01DX009 (ip), vehicle: Klucel (hydroxypropylcellulose) (HPC)
[3] = dose: 12.5 mg/kg/injection, schedule: Q01DX009 (ip), vehicle: Klucel (hydroxypropylcellulose) (HPC)
[4] = dose: 50.0 mg/kg/injection, schedule: Q01DX009 (ip), vehicle: Klucel (hydroxypropylcellulose) (HPC)
[5] = dose: 100.0 mg/kg/injection, schedule: Q01DX009 (ip), vehicle: Klucel (hydroxypropylcellulose) (HPC)

With `COc1cc(NS(C)(=O)=O)ccc1Nc1c2ccccc2nc2ccccc12` as the compound, how does the T/C (dose: 0.5 mg/kg/injection, schedule: Q01DX009 (ip), vehicle: other) read?
The T/C was 103 % of control.

What about the T/C (dose: 1.0 mg/kg/injection, schedule: Q01DX009 (ip), vehicle: other) of the same compound?
The T/C was 98 % of control.

And the T/C (dose: 2.0 mg/kg/injection, schedule: Q01DX009 (ip), vehicle: other)?
The T/C was 89 % of control.

What about the T/C (dose: 2.0 mg/kg/injection, schedule: Q01DX009 (ip), vehicle: saline with Tween-80) of the same compound?
The T/C was 102 % of control.

And the T/C (dose: 3.0 mg/kg/injection, schedule: Q01DX009 (ip), vehicle: saline with Tween-80)?
The T/C was 101 % of control.

And the T/C (dose: 4.5 mg/kg/injection, schedule: Q01DX009 (ip), vehicle: saline with Tween-80)?
The T/C was 98 % of control.

And the T/C (dose: 9.0 mg/kg/injection, schedule: Q04DX003 (ip), vehicle: saline with Tween-80)?
Its T/C is 89 % of control.

What about the T/C (dose: 13.0 mg/kg/injection, schedule: Q04DX003 (ip), vehicle: saline with Tween-80) of the same compound?
The T/C was 108 % of control.

What about the T/C (dose: 20.0 mg/kg/injection, schedule: Q01DX001 (ip), vehicle: saline with Tween-80) of the same compound?
The T/C was 101 % of control.

What about the T/C (dose: 20.0 mg/kg/injection, schedule: Q04DX003 (ip), vehicle: saline with Tween-80) of the same compound?
Its T/C is 98 % of control.

What about the T/C (dose: 30.0 mg/kg/injection, schedule: Q01DX001 (ip), vehicle: saline with Tween-80) of the same compound?
Its T/C is 107 % of control.

And the T/C (dose: 45.0 mg/kg/injection, schedule: Q01DX001 (ip), vehicle: saline with Tween-80)?
Its T/C is 107 % of control.

With `O=c1[nH]c(=O)n([C@H]2CCCO2)cc1F` as the compound, how does the T/C (dose: 23.0 mg/kg/injection, schedule: Q01DX009 (ip), vehicle: saline) read?
The T/C was 101 % of control.

What about the T/C (dose: 39.0 mg/kg/injection, schedule: Q01DX009 (ip), vehicle: saline) of the same compound?
The T/C was 100 % of control.

And the T/C (dose: 65.0 mg/kg/injection, schedule: Q01DX009 (ip), vehicle: saline)?
The T/C was 100 % of control.

And the T/C (dose: 108.0 mg/kg/injection, schedule: Q04DX003 (ip), vehicle: saline)?
Its T/C is 118 % of control.

And the T/C (dose: 180.0 mg/kg/injection, schedule: Q04DX003 (ip), vehicle: saline)?
The T/C was 107 % of control.

For `CC1(C)N=C(N)N=C(N)N1c1ccc(OCC(=O)Nc2ccc(S(=O)(=O)F)cc2)c(Cl)c1`, which T/C [1] is on record?
Its T/C is 115 % of control.

And the T/C (dose: 100.0 mg/kg/injection, schedule: Q04DX003 (ip), vehicle: saline)?
Its T/C is 113 % of control.

Which T/C (dose: 6.25 mg/kg/injection, schedule: Q04DX003 (ip), vehicle: saline) does the source give for `CC(CN1CC(=O)NC(=O)C1)N1CC(=O)NC(=O)C1` (configuration not stated) here?
Its T/C is 97 % of control.

And the T/C (dose: 8.0 mg/kg/injection, schedule: Q01DX009 (ip), vehicle: Klucel (hydroxypropylcellulose) (HPC))?
The T/C was 113 % of control.

And the T/C (dose: 12.5 mg/kg/injection, schedule: Q04DX003 (ip), vehicle: saline)?
Its T/C is 97 % of control.

What about the T/C (dose: 15.0 mg/kg/injection, schedule: Q01DX009 (ip), vehicle: saline) of the same compound?
Its T/C is 122 % of control.

And the T/C (dose: 16.0 mg/kg/injection, schedule: Q01DX009 (ip), vehicle: Klucel (hydroxypropylcellulose) (HPC))?
The T/C was 118 % of control.

What about the T/C (dose: 25.0 mg/kg/injection, schedule: Q04DX003 (ip), vehicle: saline) of the same compound?
The T/C was 102 % of control.

What about the T/C (dose: 30.0 mg/kg/injection, schedule: Q01DX009 (ip), vehicle: saline) of the same compound?
The T/C was 95 % of control.

What about the T/C [1] of the same compound?
The T/C was 111 % of control.

And the T/C (dose: 60.0 mg/kg/injection, schedule: Q01DX009 (ip), vehicle: saline)?
The T/C was 110 % of control.

And the T/C (dose: 64.0 mg/kg/injection, schedule: Q01DX009 (ip), vehicle: Klucel (hydroxypropylcellulose) (HPC))?
The T/C was 119 % of control.

And the T/C (dose: 120.0 mg/kg/injection, schedule: Q01DX009 (ip), vehicle: saline)?
Its T/C is 109 % of control.

And the T/C (dose: 200.0 mg/kg/injection, schedule: Q04DX003 (ip), vehicle: saline)?
Its T/C is 105 % of control.

And the T/C (dose: 400.0 mg/kg/injection, schedule: Q04DX003 (ip), vehicle: saline)?
Its T/C is 120 % of control.

Which results are given for `CCCCNCCCNCCCNC(=O)c1csc(-c2csc(CCNC(=O)C(NC(=O)C(C)C(O)C(C)NC(=O)C(NC(=O)c3nc(C(CC(N)=O)NCC(N)C(N)=O)nc(N)c3C)C(OC3OC(CO)C(O)C(O)C3OC3OC(CO)C(O)C(OC(N)=O)C3O)c3cnc[nH]3)C(C)O)n2)n1` (configuration not stated)?
T/C (dose: 0.31 mg/kg/injection, schedule: Q01DX009 (ip), vehicle: water): 86 % of control; T/C (dose: 0.62 mg/kg/injection, schedule: Q01DX009 (ip), vehicle: water): 154 % of control; T/C (dose: 1.25 mg/kg/injection, schedule: Q01DX009 (ip), vehicle: water): 120 % of control; T/C (dose: 2.5 mg/kg/injection, schedule: Q01DX009 (ip), vehicle: water): 122 % of control; T/C (dose: 5.0 mg/kg/injection, schedule: Q01DX009 (ip), vehicle: water): 158 % of control

For `O=C1C=CC(=O)N1c1ccc(Cl)cc1`, which T/C (dose: 1.25 mg/kg/injection, schedule: Q01DX009 (ip), vehicle: Klucel (hydroxypropylcellulose) (HPC)) is on record?
The T/C was 123 % of control.

And the T/C (dose: 5.0 mg/kg/injection, schedule: Q01DX009 (ip), vehicle: Klucel (hydroxypropylcellulose) (HPC))?
The T/C was 102 % of control.

What about the T/C (dose: 10.0 mg/kg/injection, schedule: Q01DX009 (ip), vehicle: Klucel (hydroxypropylcellulose) (HPC)) of the same compound?
Its T/C is 89 % of control.

And the T/C (dose: 20.0 mg/kg/injection, schedule: Q01DX009 (ip), vehicle: Klucel (hydroxypropylcellulose) (HPC))?
Its T/C is 98 % of control.

How did the T/C (dose: 6.25 mg/kg/injection, schedule: Q01DX009 (ip), vehicle: other) turn out when `COC1C(O)C(C)OC(OC2C(Oc3cccc4c(O)c5c(=O)oc6ccc(C)c7c(=O)oc(c34)c5c67)OC(C)C(O)C2O)C1O` (configuration not stated) was run?
The T/C was 95 % of control.

What about the T/C (dose: 12.5 mg/kg/injection, schedule: Q01DX009 (ip), vehicle: other) of the same compound?
The T/C was 104 % of control.

And the T/C (dose: 25.0 mg/kg/injection, schedule: Q01DX009 (ip), vehicle: other)?
The T/C was 100 % of control.

What about the T/C (dose: 50.0 mg/kg/injection, schedule: Q01DX009 (ip), vehicle: other) of the same compound?
Its T/C is 101 % of control.

Which T/C (dose: 500.0 mg/kg/injection, schedule: Q02HX003 (ip), vehicle: saline) does the source give for `OCC1SC(O)C(O)C(O)C1O` (configuration not stated) here?
The T/C was 104 % of control.

What about the T/C (dose: 500.0 mg/kg/injection, schedule: Q02HX003 (ip), vehicle: water) of the same compound?
Its T/C is 103 % of control.

What about the T/C (dose: 1000.0 mg/kg/injection, schedule: Q02HX003 (ip), vehicle: saline) of the same compound?
Its T/C is 89 % of control.

What about the T/C (dose: 1000.0 mg/kg/injection, schedule: Q02HX003 (ip), vehicle: water) of the same compound?
Its T/C is 95 % of control.

And the T/C (dose: 1500.0 mg/kg/injection, schedule: Q01DX001 (ip), vehicle: saline)?
Its T/C is 100 % of control.

And the T/C (dose: 1500.0 mg/kg/injection, schedule: Q01DX001 (ip), vehicle: water)?
Its T/C is 99 % of control.

What about the T/C (dose: 3000.0 mg/kg/injection, schedule: Q01DX001 (ip), vehicle: saline) of the same compound?
The T/C was 91 % of control.

What about the T/C (dose: 3000.0 mg/kg/injection, schedule: Q01DX001 (ip), vehicle: water) of the same compound?
Its T/C is 92 % of control.

Which results are given for `CCO/C=C1\SC(=S)N(c2ccc(C(=O)O)cc2)C1=O`?
T/C (dose: 3.12 mg/kg/injection, schedule: Q01DX009 (ip), vehicle: Klucel (hydroxypropylcellulose) (HPC)): 110 % of control; T/C [2]: 101 % of control; T/C [3]: 118 % of control; T/C [4]: 121 % of control; T/C [5]: 121 % of control

With `CC(=O)NNC(=O)c1ccccn1` as the compound, how does the T/C [2] read?
The T/C was 102 % of control.

What about the T/C [3] of the same compound?
The T/C was 92 % of control.

And the T/C (dose: 25.0 mg/kg/injection, schedule: Q01DX009 (ip), vehicle: Klucel (hydroxypropylcellulose) (HPC))?
The T/C was 86 % of control.

And the T/C [4]?
Its T/C is 88 % of control and 98 % of control.

And the T/C [5]?
Its T/C is 88 % of control.

What does the source list for `N[C@H](C(=O)O)[C@H]1ON=C(Cl)[C@@H]1O`?
T/C (dose: 8.0 mg/kg/injection, schedule: Q01DX009 (ip), vehicle: saline): 113 % of control; T/C (dose: 16.0 mg/kg/injection, schedule: Q01DX009 (ip), vehicle: saline): 114 % of control; T/C (dose: 32.0 mg/kg/injection, schedule: Q01DX009 (ip), vehicle: saline): 108 % of control; T/C (dose: 128.0 mg/kg/injection, schedule: Q01DX009 (ip), vehicle: saline): 114 % of control; T/C (dose: 256.0 mg/kg/injection, schedule: Q01DX009 (ip), vehicle: saline): 114 % of control; T/C (dose: 500.0 mg/kg/injection, schedule: Q01DX009 (ip), vehicle: saline with Tween-80): 117 % of control

Which T/C (dose: 444.0 mg/kg/injection, schedule: Q04HX003 (ip), vehicle: saline) does the source give for `CCCCS(=N)(=O)CC[C@H](N)C(=O)O` (some centres not stated) here?
The T/C was 104 % of control.

And the T/C (dose: 888.0 mg/kg/injection, schedule: Q04HX003 (ip), vehicle: saline)?
Its T/C is 100 % of control.

What about the T/C (dose: 1776.0 mg/kg/injection, schedule: Q04HX003 (ip), vehicle: saline) of the same compound?
The T/C was 102 % of control.

Which T/C (dose: 4.0 mg/kg/injection, schedule: Q01DX009 (ip), vehicle: saline with Tween-80) does the source give for `Nc1nc(=S)c2ncn(C3CC(O)C(CO)O3)c2[nH]1` (configuration not stated) here?
The T/C was 109 % of control.

What about the T/C (dose: 8.0 mg/kg/injection, schedule: Q01DX009 (ip), vehicle: saline with Tween-80) of the same compound?
Its T/C is 91 % of control.

And the T/C (dose: 16.0 mg/kg/injection, schedule: Q01DX009 (ip), vehicle: saline with Tween-80)?
Its T/C is 95 % of control.

And the T/C (dose: 32.0 mg/kg/injection, schedule: Q01DX009 (ip), vehicle: saline with Tween-80)?
The T/C was 91 % of control.

What about the T/C (dose: 64.0 mg/kg/injection, schedule: Q01DX009 (ip), vehicle: saline with Tween-80) of the same compound?
Its T/C is 123 % of control.
